Laboratory results from US20200246352A1, “Vanadyl and vanadate for use in reducing stress-induced metabolic derangement” (CFM Pharma Holding B.V., priority 2017, published 2020).
Values joined by “and” are separate entries in the source; they are usually repeats but may differ in a detail not shown here. Identical values can stand only once. Like-named read-outs stand apart in the source and are kept apart here.

Tested on: healthy male Wistar rats
Conditions: for Effect of adrenaline infusion on blood glucose level: 0.1, 0.3 or 1 μg/kg/min infusion for 180 min; for Blood glucose levels, individual animals in duplicate: medium adrenaline dose (MA) 0.3 μg/kg/min
Description: In the first part of the study (Table 1, Table 3, series 1), thirteen (13) healthy male Wistar rats were anesthetized by intraperitoneal (ip.) injection of thiopental (Tiobarbital 0.5 g, Braun Medical SA) after 12 hours of fasting.

CNCC(O)c1ccc(O)c(O)c1 (stereo not shown) [adrenaline]
Effect of adrenaline infusion on blood glucose level: inflicts hyperglycemic state in an adrenaline dose dependent manner | Effect of adrenaline infusion on blood glucose level (listed as Adrenaline): dose-dependent continuous increase in blood glucose level | Blood glucose level, mean (high dose 1 μg/kg/min infusion, 0 min (before infusion)): 5.39 mM/l | Blood glucose level, mean (high dose 1 μg/kg/min infusion, 15 min): 5.46 mM/l | Blood glucose level, mean (high dose 1 μg/kg/min infusion, 30 min): 5.69 mM/l | Blood glucose level, mean (high dose 1 μg/kg/min infusion, 45 min): 6.62 mM/l | Blood glucose level, mean (high dose 1 μg/kg/min infusion, 60 min): 7.93 mM/l | Blood glucose level, mean (high dose 1 μg/kg/min infusion, 90 min): 10.95 mM/l | Blood glucose level, mean (high dose 1 μg/kg/min infusion, 120 min): 13.25 mM/l | Blood glucose level, mean (high dose 1 μg/kg/min infusion, 150 min): 13.65 mM/l | Blood glucose level, mean (high dose 1 μg/kg/min infusion, 180 min): 13.81 mM/l | Time of peak blood glucose level after start of infusion (highest dose 1 μg/kg/min): around 120 min | Blood glucose level, mean (low dose 0.1 μg/kg/min infusion, 0 min (before infusion)): 5.09 mM/l | Blood glucose level, mean (low dose 0.1 μg/kg/min infusion, 15 min): 5.31 mM/l | Blood glucose level, mean (low dose 0.1 μg/kg/min infusion, 30 min): 5.26 mM/l | Blood glucose level, mean (low dose 0.1 μg/kg/min infusion, 45 min): 5.18 mM/l | Blood glucose level, mean (low dose 0.1 μg/kg/min infusion, 60 min): 5.70 mM/l | Blood glucose level, mean (low dose 0.1 μg/kg/min infusion, 90 min): 6.16 mM/l | Blood glucose level, mean (low dose 0.1 μg/kg/min infusion, 120 min): 7.09 mM/l | Blood glucose level, mean (low dose 0.1 μg/kg/min infusion, 150 min): 7.89 mM/l | Blood glucose level, mean (low dose 0.1 μg/kg/min infusion, 180 min): 8.34 mM/l | Blood glucose levels, individual animals in duplicate (30 min): 6.0 mM/l (2×) and 5.9 mM/l | Blood glucose levels, individual animals in duplicate (45 min): 4.7 mM/l and 4.3 mM/l and 5.7 mM/l | Blood glucose levels, individual animals in duplicate (60 min): 6.4 mM/l (2×) and 6.7 mM/l | Blood glucose levels, individual animals in duplicate (90 min): 6.0 mM/l and 7.4 mM/l and 9.5 mM/l | Blood glucose levels, individual animals in duplicate (120 min): 8.7 mM/l and 8.9 mM/l and 11.7 mM/l | Blood glucose levels, individual animals in duplicate (150 min): 7.5 mM/l and 7.1 mM/l and 12.8 mM/l | Blood glucose levels, individual animals in duplicate (180 min): 5.3 mM/l (2×) and 13.2 mM/l | Blood glucose level, mean (medium dose 0.3 μg/kg/min infusion, 0 min (before infusion)): 5.53 mM/l | Blood glucose level, mean (medium dose 0.3 μg/kg/min infusion, 15 min): 6.45 mM/l | Blood glucose level, mean (medium dose 0.3 μg/kg/min infusion, 30 min): 6.36 mM/l | Blood glucose level, mean (medium dose 0.3 μg/kg/min infusion, 45 min): 6.34 mM/l | Blood glucose level, mean (medium dose 0.3 μg/kg/min infusion, 60 min): 7.85 mM/l | Blood glucose level, mean (medium dose 0.3 μg/kg/min infusion, 90 min): 10.15 mM/l | Blood glucose level, mean (medium dose 0.3 μg/kg/min infusion, 120 min): 11.36 mM/l | Blood glucose level, mean (medium dose 0.3 μg/kg/min infusion, 150 min): 10.96 mM/l | Blood glucose level, mean (medium dose 0.3 μg/kg/min infusion, 180 min): 10.19 mM/l
